Source: patent US10934309B2, “Tricyclic quinone derivative” (Boston Biomedical, Inc., priority 2014, dated 2021)

Legend:
Format in all cases: cell-based, human
HT-29 cells [1] = test: Proliferation inhibition assay of cancer cells (Test Example 1), HT-29; details: Homo sapiens, HT-29, 96 h, HT-29 cells, cultured for 4 days, Cell Titer-Glo; read-out: IC50 (μM) HT; concentration for 50% inhibition of cell proliferation (Bulk IC50 value)
Procedure: (§1) HCT-116 cells (derived from human colon adenocarcinoma), HT-29 cells (derived from human colon cancer), and FaDu cells (derived from human hypopharynx cancer) were obtained from American Type Culture Collection (ATCC). […] After cells were seeded at 300-600 cells/well onto black μClear-plate 384 well (Greiner bio-one Cat. No. 781091), a test substance was added such that the final concentration of DMSO is 0.1%, and cultured for 4 days. […] A test shown in Test example 1 was carried out for compounds obtained in the Examples.

HCT-116 cells [2] = test: Proliferation inhibition assay of cancer cells (Test Example 1), HCT-116; details: Homo sapiens, HCT-116, 96 h, HCT-116 cells, cultured for 4 days, Cell Titer-Glo; read-out: IC50 (μM) HCT; concentration for 50% inhibition of cell proliferation (Bulk IC50 value)
Procedure: as §1

HCT-116 cells [3] = test: Inhibition assay of cancer cell sphere-forming ability (Test Example 2), HCT-116; details: Homo sapiens, HCT-116, 96 h, HCT-116 cells, Ultra-Low Attachment plate, serum-free DMEM/F12 with B27, EGF, bFGF, insulin, 4 days, Cell Titer-Glo; read-out: IC50 (μM) HCT; concentration for 50% inhibition of cell proliferation (Sphere IC50 value)
Procedure: (§2) HCT-116 cells (derived from human colon adenocarcinoma), HT-29 cells (derived from human colon cancer), FaDu cells (derived from human hypopharynx cancer) were obtained from American Type Culture Collection (ATCC). […] HCT-116 cells, HT-29 cells, and FaDu cells were seeded onto 384 Well Black Clear Bottom Ultra-Low Attachment Microplate (Corning Cat. […] A test substance was added so that the final concentration of DMSO is 0.1%, and then cultured for 4 days. […] A test shown in Test example 2 was carried out for compounds obtained in the Examples.

FaDu cells [4] = test: Inhibition assay of cancer cell sphere-forming ability (Test Example 2), FaDu; details: Homo sapiens, FaDu, 96 h, FaDu cells, Ultra-Low Attachment plate, serum-free DMEM/F12 with B27, EGF, bFGF, insulin, 4 days, Cell Titer-Glo; read-out: IC50 (μM) FaDu; concentration for 50% inhibition of cell proliferation (Sphere IC50 value)
Procedure: as §2

HT-29 cells [5] = test: Inhibition assay of cancer cell sphere-forming ability (Test Example 2), HT-29; details: Homo sapiens, HT-29, 96 h, HT-29 cells, Ultra-Low Attachment plate, serum-free DMEM/F12 with B27, EGF, bFGF, insulin, 4 days, Cell Titer-Glo; read-out: IC50 (μM) HT; concentration for 50% inhibition of cell proliferation (Sphere IC50 value)
Procedure: as §2

FaDu cells [6] = test: Proliferation inhibition assay of cancer cells (Test Example 1), FaDu; details: Homo sapiens, FaDu, 96 h, FaDu cells, cultured for 4 days, Cell Titer-Glo; read-out: IC50 (μM) FaDu; concentration for 50% inhibition of cell proliferation (Bulk IC50 value)
Procedure: as §1

| SMILES | IC50 (HT-29 cells [1]) [µM] | IC50 (HCT-116 cells [2]) [µM] | IC50 (HCT-116 cells [3]) [µM] | IC50 (FaDu cells [4]) [µM] | IC50 (HT-29 cells [5]) [µM] | IC50 (FaDu cells [6]) [µM] |
| --- | --- | --- | --- | --- | --- | --- |
| CC(=O)c1cc2c(o1)C(=O)c1cnccc1C2=O [Example 48, 2-acetylfuro[3,2-g]isoquinoline-4,9-dione] | 0.62 | 0.07 | 0.07 | 0.05 | 0.55 | 0.06 |
| CC(=O)c1cc2c(o1)C(=O)c1ncccc1C2=O [Example 50, 2-acetylfuro[3,2-g]quinoline-4,9-dione] | 0.59 | 0.47 | 0.26 | 0.17 | 0.58 | 0.47 |
| CC(O)c1cc2c(o1)C(=O)c1ncccc1C2=O (stereo not drawn) [Example 51, 2-(1-hydroxyethyl)furo[3,2-g]quinoline-4,9-dione] | 0.84 | 0.39 | 0.09 | 0.08 | 0.43 | 0.49 |
| CC(=O)c1cc2c(o1)C(=O)c1sccc1C2=O [Example 52, 2-acetylthieno[3,2-f][1]benzofuran-4,8-dione] | 0.64 | 0.07 | 0.05 | 0.06 | 0.08 | 0.43 |
| CC(O)c1cc2c(o1)C(=O)c1sccc1C2=O (stereo not drawn) [Example 53, 2-(1-hydroxyethyl)thieno[3,2-f][1]benzofuran-4,8-dione] | 0.68 | 0.55 | 0.56 | 0.45 | 0.59 | 0.64 |
| CC(C)(O)c1cc2c(o1)C(=O)c1sccc1C2=O [Example 54, 2-(2-hydroxypropan-2-yl)thieno[3,2-f][1]benzofuran-4,8-dione] | 2.47 | 0.61 | 0.6 | 0.59 | 0.77 | 0.67 |
| CC(=O)c1cc2c(o1)C(=O)c1ccsc1C2=O [Example 56, 2-acetylthieno[2,3-f][1]benzofuran-4,8-dione] | 0.62 | 0.09 | 0.06 | 0.08 | 0.58 | 0.56 |
| O=C1c2cc(C(=O)N3CCOCC3)sc2C(=O)c2nccnc21 [Example 57, 7-(morpholin-4-ylcarbonyl)thieno[2,3-g]quinoxaline-5,9-dione] | > 10 | 5.71 | 4.97 | 5.65 | > 10 | 8.21 |
| C[C@@H]1CN(C(=O)c2cc3c(s2)C(=O)c2nccnc2C3=O)C[C@H](C)O1 [Example 58, 7-{[(2R,6S)-2,6-dimethylmorpholin-4-yl]carbonyl}thieno[2,3-g]quinoxaline-5,9-dione] | 7.06 | 0.64 | 0.56 | 0.76 | 5.97 | 3.71 |
| O=C1c2cc(CN3CCOCC3)sc2C(=O)c2nccnc21 [Example 59, 7-(morpholin-4-ylmethyl)thieno[2,3-g]quinoxaline-5,9-dione] | 0.84 | 0.28 | 0.05 | 0.06 | 0.63 | 0.36 |
| CCOC(=O)/C=C/c1cc2c(s1)C(=O)c1ccncc1C2=O [Example 60, ethyl (E)-3-(4,9-dioxo-4,9-dihydrothieno[2,3-g]isoquinolin-2-yl)acrylate] | > 10 | 2.71 | 7.41 | 0.83 | 8.98 | 0.75 |
| C#Cc1cc2c(s1)C(=O)c1ccncc1C2=O [Example 61, 2-ethynylthieno[2,3-g]isoquinoline-4,9-dione] | 0.54 | 0.19 | 0.28 | 0.05 | 0.24 | 0.05 |
